Reference: patent US20220315532A1, “METHODS FOR PREPARING CDK4/6 INHIBITOR AND SALT AND INTERMEDIATE THEREOF” (Gan & Lee Pharmaceuticals Co., Ltd., priority 2019, published 2022)

Experiments:
Assay type in all cases: physicochemical
solubility in water = conditions: compared with the free base
[1] = solubility in simulated intestinal fluid (FaSSIF, FeSSIF); conditions: compared with the free base
[2] = hygroscopicity and crystalline form after moisture absorption
[3] = physical and chemical stability under high humidity and illumination; conditions: compared with free base

solubility in water (solubility in water): higher solubility
solubility in fasted state simulated intestinal fluid (FaSSIF) [1]: higher solubility
crystalline form stability ([2]; after moisture absorption): stable in crystalline form
physical and chemical stability [3]: better physical and chemical stability
SMILES: CC1=Nc2c(F)cc(-c3nc(Nc4ccc(C5CCN(C)CC5)cn4)ncc3F)cc2C12CCCC2.O=C(O)/C=C/C(=O)O [fumarate, fumarate of 5-fluoro-4-(7′-fluoro-2′-methylspiro[cyclopentane-1,3′-indol]-5′-yl)-N-(5-(1-methylpiperidin-4-yl)pyridin-2-yl)pyrimidin-2-amine]
hygroscopicity ([2]; compared with the free base): low hygroscopicity comparable to the free base
